Test results: paper PMC3914206

Assays:
Format in all cases: binding
Parameters in all cases: KINOMEscan: ABL1(F317L)-phosphorylated / KINOMEscan: ABL1(H396P)-nonphosphorylated / KINOMEscan: ABL1(H396P)-phosphorylated / KINOMEscan: ABL1(M351T)-phosphorylated / KINOMEscan: ABL1(T315I)-phosphorylated / KINOMEscan: ABL1-nonphosphorylated / KINOMEscan: ABL1-phosphorylated / KINOMEscan: ACVR2A / KINOMEscan: ACVR2B / KINOMEscan: ADCK3 / KINOMEscan: ADCK4 / KINOMEscan: AKT1 / KINOMEscan: AKT3 / KINOMEscan: ALK / KINOMEscan: ARK5 / KINOMEscan: AURKA / KINOMEscan: AURKC / KINOMEscan: BIKE / KINOMEscan: BMPR1A / KINOMEscan: BMPR1B / KINOMEscan: BMX / KINOMEscan: BRK / KINOMEscan: BRSK1 / KINOMEscan: BRSK2 / KINOMEscan: CAMK1 / KINOMEscan: CAMK1D / KINOMEscan: CAMK1G / KINOMEscan: CAMK2A / KINOMEscan: CAMK2B / KINOMEscan: AAK1 / KINOMEscan: CAMK2D / KINOMEscan: CAMK2G / KINOMEscan: ABL1(F317I)-nonphosphorylated / KINOMEscan: ABL1(F317I)-phosphorylated / KINOMEscan: ABL1(F317L)-nonphosphorylated: unit: % Ctrl
Conditions in all cases: Compound Concentration 10 µM
panel of 442 kinases [1] = biological target: T1, panel of 442 kinases (Homo sapiens, UniProt Q13043)
T1 construct: purchased KINOMEscan
T1 sequence (Q13043 1-487): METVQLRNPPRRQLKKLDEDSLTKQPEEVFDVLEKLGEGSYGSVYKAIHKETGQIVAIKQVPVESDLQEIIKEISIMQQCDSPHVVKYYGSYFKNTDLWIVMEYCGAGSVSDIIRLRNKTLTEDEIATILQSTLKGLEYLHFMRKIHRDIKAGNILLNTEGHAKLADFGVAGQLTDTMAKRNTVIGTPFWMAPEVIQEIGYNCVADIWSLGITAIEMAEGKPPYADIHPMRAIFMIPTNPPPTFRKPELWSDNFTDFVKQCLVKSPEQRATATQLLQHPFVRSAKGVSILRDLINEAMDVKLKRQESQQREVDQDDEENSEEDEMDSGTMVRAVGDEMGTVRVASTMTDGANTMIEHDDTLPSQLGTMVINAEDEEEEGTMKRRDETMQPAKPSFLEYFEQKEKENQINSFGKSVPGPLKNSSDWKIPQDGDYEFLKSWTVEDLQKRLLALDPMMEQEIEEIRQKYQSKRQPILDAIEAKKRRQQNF
Description: (§1) We assessed the selectivity of members of this scaffold using the KINOMEscan methodology across a near comprehensive panel of 442 kinases [[18,27]].

panel of 442 kinases [2] = biological target: T2, panel of 442 kinases (Homo sapiens, UniProt P51451)
T2 construct: purchased KINOMEscan
Description: as §1

panel of 442 kinases [3] = biological target: T3, panel of 442 kinases (Homo sapiens, UniProt Q13555)
T3 construct: purchased KINOMEscan
Description: as §1

T2 sequence (P51451 whole entry): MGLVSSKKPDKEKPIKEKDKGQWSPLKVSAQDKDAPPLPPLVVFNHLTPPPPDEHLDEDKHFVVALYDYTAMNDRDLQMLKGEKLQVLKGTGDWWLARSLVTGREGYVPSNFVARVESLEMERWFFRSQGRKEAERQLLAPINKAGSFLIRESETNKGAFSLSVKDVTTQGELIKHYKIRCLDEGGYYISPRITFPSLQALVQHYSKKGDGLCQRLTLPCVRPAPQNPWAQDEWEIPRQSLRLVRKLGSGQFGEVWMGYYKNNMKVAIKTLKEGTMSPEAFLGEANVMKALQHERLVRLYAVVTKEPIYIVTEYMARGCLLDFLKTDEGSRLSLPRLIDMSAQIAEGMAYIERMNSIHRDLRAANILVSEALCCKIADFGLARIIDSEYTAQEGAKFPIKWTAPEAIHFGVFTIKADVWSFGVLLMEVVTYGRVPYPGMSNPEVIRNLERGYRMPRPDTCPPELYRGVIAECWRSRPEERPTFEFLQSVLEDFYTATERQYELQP
T3 sequence (Q13555 whole entry): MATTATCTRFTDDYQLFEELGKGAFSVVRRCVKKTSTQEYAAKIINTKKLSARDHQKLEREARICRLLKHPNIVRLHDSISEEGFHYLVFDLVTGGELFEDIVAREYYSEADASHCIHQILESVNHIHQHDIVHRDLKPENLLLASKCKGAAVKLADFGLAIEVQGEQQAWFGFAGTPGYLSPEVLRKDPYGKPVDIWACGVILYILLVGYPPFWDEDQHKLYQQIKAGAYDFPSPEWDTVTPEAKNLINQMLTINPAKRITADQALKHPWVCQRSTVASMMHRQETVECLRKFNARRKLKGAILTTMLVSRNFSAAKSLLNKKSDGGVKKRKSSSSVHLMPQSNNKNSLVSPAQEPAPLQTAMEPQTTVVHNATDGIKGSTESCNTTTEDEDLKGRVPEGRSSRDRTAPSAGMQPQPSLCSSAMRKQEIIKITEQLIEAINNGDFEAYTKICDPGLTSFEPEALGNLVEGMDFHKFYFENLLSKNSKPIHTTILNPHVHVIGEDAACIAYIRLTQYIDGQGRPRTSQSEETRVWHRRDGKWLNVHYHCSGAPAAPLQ

Row | Structure (SMILES) | KINOMEscan: MST1 (panel of 442 kinases [1]) | KINOMEscan: BLK (panel of 442 kinases [2]) | KINOMEscan: CAMK2G (panel of 442 kinases [3])
1 | COc1cc(C(=O)N2CCC(N3CCN(C)CC3)CC2)ccc1Nc1ncc2c(n1)N(C)c1ccccc1C(=O)N2C [15 (LRRK2-IN-1)] | 100 | 97 | 47
2 | COc1cc(C(=O)N2CCC(N3CCN(C)CC3)CC2)ccc1Nc1ncc2c(n1)N1CCc3cccc(c31)C(=O)N2C [Compound 24] | 95 | – | 76
3 | COc1cc(C(=O)N2CCC(N3CCN(C)CC3)CC2)ccc1Nc1ncc2c(n1)N(C1CCCC1)c1ccccc1C(=O)N2C [Compound 25, 11-cyclopentyl-2-((2-methoxy-4-(4-(4-methylpiperazin-1-yl)piperidine-1-carbonyl)phenyl)amino)-5-methyl-5H-benzo[e]pyrimido[5,4-b][1,4]diazepin-6(11H)-one] | 100 | 100 | 98
4 | CCOc1cc(C(=O)N2CCC(N3CCN(C)CC3)CC2)ccc1Nc1ncc2c(n1)N(C1CCCC1)c1ccccc1C(=O)N2C [Compound 26] | 100 | 100 | 94
